Test results taken from US6982348B2, “Aminoethanol derivatives” (Takeda Pharmaceutical Company Limited, priority 2001, dated 2006).

Experiments:
human CETP [1] = biological target: T1, human CETP (Homo sapiens, UniProt P11597); assay: Assay of cholesteryl ester transfer protein inhibitory activity, standard measurement system; assay type: biochemical; conditions: BODIPY-CE-ME donor, VLDL-LDL acceptor, reaction at 37° C. for 30 min.
T1 sequence (P11597 18-493): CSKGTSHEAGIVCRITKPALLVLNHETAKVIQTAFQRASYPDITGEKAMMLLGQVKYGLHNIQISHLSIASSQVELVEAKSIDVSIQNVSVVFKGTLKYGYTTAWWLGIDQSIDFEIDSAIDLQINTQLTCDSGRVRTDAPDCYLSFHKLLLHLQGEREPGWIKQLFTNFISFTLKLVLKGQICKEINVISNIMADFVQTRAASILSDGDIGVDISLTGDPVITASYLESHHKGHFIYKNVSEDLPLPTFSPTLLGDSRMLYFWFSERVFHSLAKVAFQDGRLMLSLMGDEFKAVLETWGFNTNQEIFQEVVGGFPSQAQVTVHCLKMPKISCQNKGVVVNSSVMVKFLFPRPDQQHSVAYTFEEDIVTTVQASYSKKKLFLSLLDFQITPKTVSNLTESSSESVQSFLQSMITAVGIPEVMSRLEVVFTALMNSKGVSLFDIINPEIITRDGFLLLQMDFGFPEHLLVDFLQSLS
Description: (§1) Assay of Cholesteryl Ester Transfer Protein Inhibitory Activity
(§2) Fresh rabbit serum was adjusted with KBr to the density of (1.063 g/ml), and the fractions (VLDL-LDL, density<1.063 g/ml) floated by ultra-centrifugation operation (SW41—Ti, 40,000 rpm, 18 hrs., 4° C., Beckman model L8-55) were collected, subjected to dialysis against 0.15 M NaCl-10 mM Tris-HCl, pH 7.4 (TBS), sterilized by filtration through a filter and preserved at 4° C.
(§3) A solution of BODIPY-CE (0.6 mg) in chloroform was added to egg PC (phosphatidylcholine) ([…]) and triolein (2 mg), and after dissolution, the lipid was air dried under a nitrogen gas reflux and the solvent was removed under high vacuum. To this lipid was added an apo HDL solution (7.5 ml) obtained by defatting human HDL (1.063<d<1.21) with chloroform-methanol (2:1, v/v), dissolving in 6 M urea-containing TBS and dialyzing against TBS, and the mixture was subjected to sonication (BRANSON SONIFIRE CELL DISRUPTOR 200, dial 6, 5 min×4) to give BOBIPY-CE-ME. After centrifugation (CENTRIPREP 10), it was sterilized by filtration through a filter and preserved at 4° C.
(§4) The test compound (20% DMSO solution, 5 μl), TS (75 μl), acceptor lipoprotein (VLDL-LDL, 20 μl) and partially purified human CETP (25 μl) were mixed and incubated at 37° C. for 30 min. BODIPY-CE-ME (25 μl) was added (total 150 μl) and a transfer reaction was started. After reaction at 37° C. for 30 min., fluorescence intensity was measured at Ex. 490 nm/Em. 530 nm. The CETP inhibitory activity (% inhibition) was calculated by the following formula. [formula] 4) 50% Human Plasma-Containing Measurement System
(§5) The IC50 value was determined as a concentration showing 50% inhibition by plotting the logarithm of the concentration of test compound and % inhibition.

human CETP [2] = biological target: T1, human CETP; assay: Assay of cholesteryl ester transfer protein inhibitory activity, 50% human plasma-containing measurement system; assay type: biochemical; conditions: BODIPY-CE-ME donor, VLDL-LDL acceptor, reaction at 37° C. for 60 min.
Description: as §1, §2, §3
as §4, with “5 μl), human plasma (75 μl),” for “5 μl), TS (75 μl),”, “C. for 60 min., fluorescence” for “C. for 30 min., fluorescence”, “formula. [formula]” for “formula. [formula] 4) 50% Human Plasma-Containing Measurement System”
as §5

| Structure (SMILES) | IC50 (human CETP [1]) [µM] | IC50 (human CETP [2]) [µM] | melting point [°C] |
| --- | --- | --- | --- |
| O=C(N[C@H](Cc1ccc2c(c1)OC(F)(F)C(F)(F)O2)[C@@H](O)c1ccc(F)cc1)c1ccc(F)c2ccccc12 (racemic) [Example 271, 4-fluoro-N-{(1RS,2SR)-2-(4-fluorophenyl)-2-hydroxy-1-[(2,2,3,3-tetrafluoro-2,3-dihydro-1,4-benzodioxin-6-yl)methyl]ethyl}-1-naphthamide] | 0.17 | 1.4 | 193 to 194 |
| CC(C)(C)c1ccc(C[C@@H](NC(=O)c2cccc3c(Cl)cccc23)[C@@H](O)c2cccc(Cl)c2)cc1 (racemic) [Example 274, N-[(1RS,2SR)-1-(4-tert-butylbenzyl)-2-(3-chlorophenyl)-2-hydroxyethyl]-5-chloro-1-naphthamide] | 0.052 | 3.1 | 112 to 113 |
